{"source": "ChEMBL document CHEMBL5725949", "about": "“Pyrazolopyridine derivatives and their use in therapy” (2018)", "data": [{"test": "Antitrypanosomal Activity Assay: Antitrypanosomal activity was tested on T. brucei brucei bloodstream from parasites (strain¿Lister 427, VATMITat 1.2). Stock solutions of compounds (50 mM) were prepared in DMSO. Two fold serial dilutions of each compound (10 wells in each row) were prepared in 96 well plates in HMI111 medium (100 μl/well; quadruplicates; cf. also Hirumi et al., J. Parasitol. 75 (1989), 985-989). One well without compound, and one well with media alone were included in each row. Parasites grown in HMI11 were inoculated (100 μl of 4×10^4/ml) in all wells (except the well with ¿media alone¿) giving a final concentration of parasites of 2×10^4/ml. The plates were incubated for 66 hours at 37° C. in the incubator with 5% CO2. 20 μl resazurin (Sigma, 0.125 mg/ml in Hanks Balanced Salt Solution) was added to all wells and the plate was further incubated for 6 hours. Change in color of resazurin (blue to pink) by living cells was measured with a 96 well plate reader (excitation at 530 nm, emission at 585 nm, filter cut-off: 570 nm). Percent inhibition values were calculated by setting the well without compound to ¿0% inhibition¿.", "units": {"IC50": "µM"}, "values": [{"smiles": "Cn1nc(C(=O)NCc2ccccc2)c2c1CCN(Cc1cccc(-c3ccccc3)c1)C2", "IC50": 4.06}, {"smiles": "O=C(NCc1cccc2ccccc12)c1nn(CCO)c2c1CN(Cc1c[nH]c3c(C(=O)O)cccc13)CC2", "IC50": 42.6}, {"smiles": "O=C(NCc1ccccc1)c1nn(CCO)c2c1CN(Cc1ccc(OC(F)(F)F)cc1)CC2", "IC50": 12.5}, {"smiles": "Cn1nc(C(=O)NCc2ccc3ccccc3c2)c2c1CCN(Cc1c[nH]c3ccccc13)C2", "IC50": 2.62}, {"smiles": "O=C(NCc1cccc2ccccc12)c1nn(CCO)c2c1CN(Cc1ccc(F)c3ccccc13)CC2", "IC50": 34}, {"smiles": "COC(=O)c1ccc2c(CN3CCc4c(c(C(=O)NCc5cccc6ccccc56)nn4CCO)C3)c[nH]c2c1", "IC50": 2.7}, {"smiles": "COc1ccc(CN2CCc3c(c(C(=O)NCc4cccc5ccccc45)nn3-c3ccccc3)C2)c2ccccc12", "IC50": 0.24}, {"smiles": "O=C(NCc1ccccc1)c1nn(CCO)c2c1CN(Cc1cnn(-c3ccccc3)c1)CC2", "IC50": 12.7}, {"smiles": "O=C(NCc1ccccc1)c1nn(CCO)c2c1CN(CC(c1ccccc1)c1ccccc1)CC2", "IC50": 5.32}, {"smiles": "O=C(NCc1cccc2ccccc12)c1nn(CCO)c2c1CN(Cc1cccc3c1OCO3)CC2", "IC50": 15.9}, {"smiles": "CC(NC(=O)c1nn(CCO)c2c1CN(Cc1cccc3c1OCO3)CC2)c1ccccc1", "note": "(stereo not drawn)", "IC50": 17.6}, {"smiles": "COc1ccc(CN2CCc3c(c(C(=O)NCc4cccc5cccnc45)nn3CCO)C2)c2ccccc12", "IC50": 2.96}, {"smiles": "C=CCn1nc(C(=O)NCc2ccccc2)c2c1CCN(Cc1ccc3ncccc3c1)C2", "IC50": 9.57}, {"smiles": "O=C(NCc1cccc2ccccc12)c1nn(CCO)c2c1CN(Cc1cccc(-c3ccccc3)c1)CC2", "IC50": 1.5}, {"smiles": "O=C(NCc1ccccc1)c1nn(CCO)c2c1CN(Cc1cccc(OC(F)F)c1)CC2", "IC50": 19.7}, {"smiles": "O=C(NCc1ccccc1)c1nn(CCO)c2c1CN(Cc1cccn1-c1ccccn1)CC2", "IC50": 10.4}, {"smiles": "COc1cc(CN2CCc3c(c(C(=O)NCc4ccccc4)nn3CCO)C2)cc2c1OCO2", "IC50": 11}, {"smiles": "COc1ccc(CN2CCc3c(c(C(=O)NCc4cccc5ccccc45)nn3CC(O)CN)C2)c2ccccc12", "note": "(stereo not drawn)", "IC50": 0.62}, {"smiles": "O=C(NCc1cccc2ccccc12)c1nn(CCO)c2c1CN(Cc1ccc(C(F)(F)F)cc1)CC2", "IC50": 2.99}, {"smiles": "O=C(NCc1ccccc1)c1nn(CCO)c2c1CN(Cc1ccccc1C(F)(F)F)CC2", "IC50": 57.6}, {"smiles": "CC(NC(=O)c1nn(CCO)c2c1CN(CC1Cc3ccccc3CN1C)CC2)c1ccccc1", "note": "(stereo not drawn)", "IC50": 13.5}, {"smiles": "C=C(C)C1CC=C(CN2CCc3c(c(C(=O)NCc4ccccc4)nn3CCO)C2)CC1", "note": "(stereo not drawn)", "IC50": 16.9}, {"smiles": "COc1ccc(CN2CCc3c(c(C(=O)NCc4cccc5ccccc45)nn3C3CCCC3)C2)c2ccccc12", "IC50": 1.22}, {"smiles": "Cn1nc(C(=O)NCc2ccccc2)c2c1CCN(Cc1c[nH]c3cc(OCc4ccccc4)ccc13)C2", "IC50": 1.7}, {"smiles": "O=C(NCc1cccc2ccccc12)c1nn(CCO)c2c1CN(Cc1ccc(-c3ccccc3)cc1)CC2", "IC50": 0.88}, {"smiles": "O=C(NCc1cccc2ccccc12)c1nn(CCO)c2c1CN(Cc1cccc3cc[nH]c13)CC2", "IC50": 4.64}, {"smiles": "O=C(NCc1ccccc1)c1nn(CCO)c2c1CN(Cc1ccc(-c3ccccc3)cc1)CC2", "IC50": 5.31}, {"smiles": "O=C(NCc1ccccc1)c1nn(CCO)c2c1CN(Cc1cc3ccccc3c3ccccc13)CC2", "IC50": 3.36}, {"smiles": "NCCn1nc(C(=O)NCc2cccc3ccccc23)c2c1CCN(Cc1ccc(Cl)c(Cl)c1)C2", "IC50": 1.27}, {"smiles": "COc1ccc(CN2CCc3c(c(C(=O)NCc4cccc5[nH]ccc45)nn3CCO)C2)c2ccccc12", "IC50": 1.02}, {"smiles": "CCCc1ccc(CN2CCc3c(c(C(=O)NCc4cccc5ccccc45)nn3CCO)C2)cc1", "IC50": 4.35}, {"smiles": "COc1ccc(CN2CCc3c(c(C(=O)NCc4cccc5ccccc45)nn3CCN3CCOCC3)C2)c2ccccc12", "IC50": 0.99}, {"smiles": "COc1ccc(CN2CCc3c(c(C(=O)NCc4cccc5ccccc45)nn3Cc3ccccc3)C2)c2ccccc12", "IC50": 3.41}, {"smiles": "O=C(NCc1cccc2ccccc12)c1nn(CCO)c2c1CN(Cc1c[nH]c3cc(OCc4ccccc4)ccc13)CC2", "IC50": 9.9}, {"smiles": "O=C(NCc1ccccc1)c1nn(CCO)c2c1CN(Cc1ccccc1-c1ccco1)CC2", "IC50": 6.78}, {"smiles": "O=C(NCc1cccc2ccccc12)c1nn(CCO)c2c1CN(CCc1ccccc1)CC2", "IC50": 27}, {"smiles": "Cc1ccc(CCN2CCc3c(c(C(=O)NCc4cccc5ccccc45)nn3CCO)C2)cc1", "IC50": 114}, {"smiles": "COc1ccc(CN2CCc3c(c(C(=O)NCc4cccc5ccccc45)nn3C3CCC3)C2)c2ccccc12", "IC50": 2}, {"smiles": "COc1ccc(CN2CCc3c(c(C(=O)NCc4cccc(C)c4)nn3CCO)C2)c2ccccc12", "IC50": 7.69}, {"smiles": "CC(NC(=O)c1nn(CCO)c2c1CN(C(=O)c1ncc3sccn13)CC2)c1ccccc1", "note": "(stereo not drawn)", "IC50": 50.5}, {"smiles": "CC(=O)c1ccc(CN2CCc3c(c(C(=O)NCc4ccccc4)nn3CCO)C2)cc1", "IC50": 22.4}, {"smiles": "COc1ccc(CN2CCc3c(c(C(=O)NCc4cccc5ccccc45)nn3C3CN(C(=O)C(C)(C)C)C3)C2)c2ccccc12", "IC50": 1.09}, {"smiles": "Cc1nc2sccn2c1CN1CCc2c(c(C(=O)NCc3ccccc3)nn2CCO)C1", "IC50": 27.2}, {"smiles": "COC(=O)c1cccc2c(CN3CCc4c(c(C(=O)NCc5ccccc5)nn4CCO)C3)c[nH]c12", "IC50": 13.2}, {"smiles": "O=C(NCc1ccccc1)c1nn(-c2ccccc2)c2c1CN(Cc1c[nH]c3ccccc13)CC2", "IC50": 2.27}, {"smiles": "COc1ccc(CN2CCc3nn(CCO)c(C(=O)NCc4cccc5ccccc45)c3C2)c2ccccc12", "IC50": 23.9}, {"smiles": "COc1ccc(CN2CCc3nn4c(c3C2)C(=O)N(Cc2cccc3ccccc23)CC4)c2ccccc12", "IC50": 4.28}, {"smiles": "CC(NC(=O)c1nn(CCO)c2c1CN(Cc1cnn(-c3ccccc3)c1)CC2)c1ccccc1", "note": "(stereo not drawn)", "IC50": 14.5}, {"smiles": "COc1ccc2cc(CN3CCc4c(c(C(=O)NCc5cccc6ccccc56)nn4CCO)C3)ccc2c1", "IC50": 18}, {"smiles": "O=C(NCc1ccccc1)c1nn(CCO)c2c1CN(CC1=CC(=O)C3C=C(Cl)C=CC3O1)CC2", "note": "(stereo not drawn)", "IC50": 35.6}, {"smiles": "Cn1nc(C(=O)NCc2ccccc2)c2c1CCN(Cc1ccc(-c3ccccc3)cc1)C2", "IC50": 4.08}, {"smiles": "COc1ccc(CN2CCc3c(c(C(=O)NCc4cc(F)cc5ccccc45)nn3CCO)C2)c2ccccc12", "IC50": 11.1}, {"smiles": "CCc1ccc(CN2CCc3c(c(C(=O)NCc4ccccc4)nn3CCO)C2)cc1", "IC50": 13.6}, {"smiles": "O=C(CC1CC1)N1CCc2c(c(C(=O)N3CCc4ccccc4C3)nn2Cc2ccccn2)C1", "IC50": 55.1}, {"smiles": "CC(NC(=O)c1nn(CCO)c2c1CN(Cc1ccc3ccoc3c1)CC2)c1ccccc1", "note": "(stereo not drawn)", "IC50": 16.2}, {"smiles": "Cn1nc(C(=O)NCc2cccc3ccccc23)c2c1CCN(Cc1cccc3ccccc13)C2", "IC50": 4.2}, {"smiles": "O=C(c1nn(Cc2ccccn2)c2c1CN(Cc1ccccc1)CC2)N1CCc2ccccc2C1", "IC50": 9.47}, {"smiles": "COc1ccc(CN2CCc3c(c(C(=O)NCc4cccc5ccccc45)nn3CCNC(=N)N)C2)c2ccccc12", "IC50": 0.22}, {"smiles": "Cn1nc(C(=O)NCc2ccccc2)c2c1CCN(Cc1noc3c1CCCC3)C2", "IC50": 44.8}, {"smiles": "COc1ccc(CN2CCc3c(c(C(=O)NCc4cccc5ccccc45)nn3CCN)C2)c2c1CCCC2", "IC50": 0.57}, {"smiles": "COc1ccc2[nH]c(CN3CCc4c(c(C(=O)NCc5cccc6ccccc56)nn4CCO)C3)cc2c1", "IC50": 7}, {"smiles": "COc1ccc2c(CN3CCc4c(c(C(=O)NCc5cccc6ccccc56)nn4CCO)C3)c[nH]c2c1", "IC50": 2.5}, {"smiles": "Cc1ccccc1-c1ccc(CN2CCc3c(c(C(=O)NCc4ccccc4)nn3CCO)C2)cc1", "IC50": 2.76}, {"smiles": "COc1ccc(CN2CCc3c(c(C(=O)NCc4cccc5ccccc45)nn3-c3cnccn3)C2)c2ccccc12", "IC50": 2.59}, {"smiles": "O=C(NCc1ccccc1)c1nn(CCO)c2c1CN(Cc1ccc3c(c1)OC=CO3)CC2", "IC50": 23.3}, {"smiles": "O=C(NCc1cccc2ccccc12)c1nn(CCO)c2c1CN(Cc1cccc3cccnc13)CC2", "IC50": 6.43}, {"smiles": "NCCn1nc(C(=O)NCc2cccc3ccccc23)c2c1CCN(Cc1ccc(Cl)cc1)C2", "IC50": 0.98}, {"smiles": "COc1ccc(CN2CCc3[nH]nc(C(=O)NCc4cccc5ccccc45)c3C2)c2ccccc12", "IC50": 1.11}]}]}
